From US6020521A, “Macrolide LHRH antagonists” (Abbott Laboratories, priority 1998, dated 2000)
pKi: −log10 of the molar value.

Target: T1, LHRH rat pituitary receptor (Rattus norvegicus, UniProt P30969)
T1 construct: from tissue; host or cells: rat pituitary
T1 sequence (P30969 1-327): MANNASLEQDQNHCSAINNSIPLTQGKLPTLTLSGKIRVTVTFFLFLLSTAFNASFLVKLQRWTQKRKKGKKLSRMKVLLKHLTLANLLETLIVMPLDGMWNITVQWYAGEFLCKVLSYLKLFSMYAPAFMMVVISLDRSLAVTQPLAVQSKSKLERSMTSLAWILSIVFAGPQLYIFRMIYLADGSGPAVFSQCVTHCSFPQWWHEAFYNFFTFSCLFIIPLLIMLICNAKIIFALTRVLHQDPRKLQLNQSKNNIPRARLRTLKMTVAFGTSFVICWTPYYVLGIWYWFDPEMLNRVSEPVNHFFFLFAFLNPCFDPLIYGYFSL
Assay: LHRH rat pituitary receptor binding (pKI)
Conditions: receptor binding affinity, negative logarithm of the equilibrium dissociation constants
Method: Representative compounds of the present invention were evaluated in in vitro tests for LHRH rat pituitary receptor binding (pKI) and for LH inhibition from rat pituitary cells for antagonist potency (pA2). The tests employed the methods detailed in F. Haviv, et al. J. Med. Chem., 32: 2340-2344 (1989). The receptor binding affinity (pKI) is the negative logarithm of the equilibrium dissociation constants.

A pKi of 8.43 was found for `CC[C@H]1OC(=O)[C@H](C)[C@@H](OC(=O)N2C(=O)OC[C@@H]2C)[C@H](C)[C@@H](O[C@@H]2O[C@H](C)C[C@H](N(C)CC3CC3)[C@H]2O)[C@](C)(OC)C[C@@H](C)C(=O)[C@H](C)[C@H]2N(CCc3ccc(Cl)c(F)c3)C(=O)O[C@]12C` [Example 36, 11-Deoxy-11-[carboxy(4-chloro-3-fluorophenethyl)amino]-3-O-[4-(S)-methyl-oxazolidin-2-one]carbamoyl-5-O-(3'-N-desmethyl-3'-N-cyclopropylmethyl)desosaminyl-6-O-methyl-erythronolide A 11,12-(cyclic carbamate)] in this work.
